Laboratory results as given in patent publication US6673791B2, “Non-nucleoside reverse transcriptase inhibitors” (Boehringer Ingelheim (Canada) Ltd., priority 2001, dated 2004).
Read-outs that look alike come from different tables or passages of the source.

Columns and labels:
[1] = molecular target: T1, K103N/Y181C double mutant RT (HIV-1 RT) (Human immunodeficiency virus type 1 group M subtype B, UniProt P03366, K702N/Y780C); assay: biochemical
T1 construct: mutations that occur in the reverse transcriptase segment of the pol gene
Excerpt: (§1) Based upon testing of these compounds, as described below, it is known that they inhibit the RNA-dependent DNA polymerase activity of HIV-1 RT. […] Utilising the Reverse Transcriptase (RT) Assay described below, compounds can be tested for their ability to inhibit the RNA-dependent DNA polymerase activity of HIV-1 RT. Certain specific compounds described in the Examples which appear below, were so tested. The results of this testing appear in Table 4 as IC50 (nM) and Table 5 as EC50 (nM).
(§2) Reverse TranscriptASE (RT) Assays
(§3) The assays are as described in WO 01/96338A1, the contents of which are hereby incorporated herein. The results are listed in Tables 8 as IC50(nM) and EC50(nM).

WT RT (HIV-1 RT) = molecular target: T2, WT RT (HIV-1 RT) (Human immunodeficiency virus type 1 group M subtype B, UniProt P03366); assay: biochemical
T2 construct: mutations that occur in the reverse transcriptase segment of the pol gene
Excerpt: as §1, §2, §3

[2] = molecular target: T3, V106A mutant RT (HIV-1 RT) (Human immunodeficiency virus type 1 group M subtype B, UniProt P03366, V705A); assay: biochemical
T3 construct: mutations that occur in the reverse transcriptase segment of the pol gene
Excerpt: as §1, §2, §3

[3] = molecular target: T4, Y188L mutant RT (HIV-1 RT) (Human immunodeficiency virus type 1 group M subtype B, UniProt P03366, Y787L); assay: biochemical
T4 construct: mutations that occur in the reverse transcriptase segment of the pol gene
Excerpt: as §1, §2, §3

[4] = tested on: WT RT (HIV-1 wild type strain); assay: EC50 assay, WT RT strain; type: cell-based; settings: Human immunodeficiency virus 1, read-out: EC50 WT RT (nM)
Excerpt: as §2, §3

[5] = tested on: K103N/Y181C (HIV-1 double mutant strain); assay: EC50 assay, K103N/Y181C strain; type: cell-based; settings: Human immunodeficiency virus 1, read-out: EC50 K103N/Y181C (nM), K103N/Y181C double mutant
Excerpt: as §2, §3

[6] = K103N/Y181C double mutant RT, read-out: IC50 K103N/Y181C
[7] = wild type RT, read-out: IC50 WT RT

CCN1c2ncc(CCOc3ccc(CC(=O)O)c4ccccc34)cc2C(=O)Nc2c(C)ccnc21 [Entry 1013]
IC50 [1]: > 1 µM
IC50 (WT RT (HIV-1 RT)): < 0.1 µM
IC50 ([2]; IC50 V106A (nM)): > 1000 nM
IC50 ([3]; IC50 Y188L (nM)): > 1000 nM

CCN1c2ncc(CCOc3ccc(C(=O)O)c4ccccc34)cc2C(=O)N(C)c2cccnc21 [Entry 2010]
IC50 [1]: 0.1 to 1 µM
IC50 (WT RT (HIV-1 RT)): < 0.1 µM
IC50 ([2]; IC50 V106A (nM)): > 1000 nM
IC50 ([3]; IC50 Y188L (nM)): > 1000 nM

CCN1c2ncc(CCOc3ccc(C(=O)O)c4ccccc34)cc2C(=O)N(C)c2cccnc21 [Entry 1001]
EC50 [4]: < 100 nM
EC50 [5]: < 100 nM

CCN1c2ncc(CCOc3ccc(CC(C)C(=O)O)c4ccccc34)cc2C(=O)Nc2c(C)ccnc21 (stereo not shown) [Entry 1046]
IC50 [1]: > 1 µM
IC50 (WT RT (HIV-1 RT)): < 0.1 µM
IC50 ([2]; IC50 V106A (nM)): > 1000 nM
IC50 ([3]; IC50 Y188L (nM)): > 1000 nM

CCN1c2ncc(CCOc3ccc(CC(C)C(=O)O)c4ccccc34)cc2C(=O)Nc2c(C)cc(Cl)nc21 (stereo not shown) [Entry 1047]
IC50 [1]: 0.1 to 1 µM
IC50 (WT RT (HIV-1 RT)): < 0.1 µM
IC50 ([2]; IC50 V106A (nM)): 100 to 1000 nM
IC50 ([3]; IC50 Y188L (nM)): > 1000 nM

CCN1c2ncc(CCOc3cccc4c3CCCN4C(=O)CC(=O)O)cc2C(=O)N(C)c2cccnc21 [Entry 6002]
IC50 (WT RT (HIV-1 RT)): < 0.1 µM

CCN1c2ncc(CCOc3ccc(NC(=O)CC(C)(C)C(=O)O)c4ccccc34)cc2C(=O)N(C)c2cccnc21 [Entry 2007]
IC50 [1, 6]: 0.1 to 1 µM
IC50 (WT RT (HIV-1 RT); [7]): < 0.1 µM
IC50 ([2]; read-out: IC50 V106A): > 1000 nM
IC50 ([3]; read-out: IC50 Y188L): > 1000 nM

CCN1c2ncc(CCOc3ccc(CC(C)C(=O)O)c4ccccc34)cc2C(=O)N(C)c2ccc(C)nc21 (stereo not shown) [Entry 1045]
IC50 [1]: 0.1 to 1 µM
IC50 (WT RT (HIV-1 RT)): < 0.1 µM
IC50 ([2]; IC50 V106A (nM)): > 1000 nM
IC50 ([3]; IC50 Y188L (nM)): > 1000 nM

CCN1c2ncc(CCOc3ccc(CC(=O)O)c4ccccc34)cc2C(=O)N(C)c2ccc(C)nc21 [Entry 1011]
IC50 [1]: 0.1 to 1 µM
IC50 (WT RT (HIV-1 RT)): < 0.1 µM
IC50 ([2]; IC50 V106A (nM)): > 1000 nM
IC50 ([3]; IC50 Y188L (nM)): > 1000 nM

CCN1c2ncc(CCOc3ccc(CCC(=O)O)c4ccccc34)cc2C(=O)N(C)c2ccc(C)nc21 [Entry 1026]
IC50 [1]: 0.1 to 1 µM
IC50 (WT RT (HIV-1 RT)): < 0.1 µM
IC50 ([2]; IC50 V106A (nM)): > 1000 nM
IC50 ([3]; IC50 Y188L (nM)): > 1000 nM

CCN1c2ncc(CCOc3ccc(/C=C(\C)C(=O)O)c4ccccc34)cc2C(=O)Nc2c(C)ccnc21 [Entry 1039]
IC50 [1]: 0.1 to 1 µM
IC50 (WT RT (HIV-1 RT)): < 0.1 µM
IC50 ([2]; IC50 V106A (nM)): 100 to 1000 nM
IC50 ([3]; IC50 Y188L (nM)): > 1000 nM

CCN1c2ncc(CCOc3ccc(CC(C)C(=O)O)c4ccccc34)cc2C(=O)N(C)c2cccnc21 (stereo not shown) [Entry 2021]
IC50 (WT RT (HIV-1 RT); [7]): 0.1 to 1 µM

CCN1c2ncc(CCOc3ccc(S(=O)(=O)NC(C)=O)c4ccccc34)cc2C(=O)N(C)c2cccnc21 [Entry 2005]
IC50 [1, 6]: 0.1 to 1 µM
IC50 (WT RT (HIV-1 RT); [7]): < 0.1 µM
IC50 ([2]; read-out: IC50 V106A): > 1000 nM
IC50 ([3]; read-out: IC50 Y188L): > 1000 nM

CCN1c2ncc(CCOc3ccc(C(=O)O)c4c3CCN(S(C)(=O)=O)C4)cc2C(=O)N(C)c2cccnc21 [Entry 7005]
IC50 [1]: < 0.1 µM
IC50 (WT RT (HIV-1 RT)): < 0.1 µM
IC50 ([2]; IC50 V106A (nM)): > 1000 nM
IC50 ([3]; IC50 Y188L (nM)): 100 to 1000 nM
EC50 [4]: < 100 nM

CCN1c2ncc(CCOc3ccc4cc(C(=O)O)ccc4c3)cc2C(=O)N(C)c2cccnc21 [Entry 3001]
IC50 [1]: 0.1 to 1 µM
IC50 (WT RT (HIV-1 RT)): < 0.1 µM
IC50 ([2]; IC50 V106A (nM)): 100 to 1000 nM
IC50 ([3]; IC50 Y188L (nM)): > 1000 nM

CCN1c2ncc(CCOc3ccc(C(=O)O)c4ccccc34)cc2C(=O)N(C)c2ccc(C)nc21 [Entry 1003]
IC50 [1]: 0.1 to 1 µM
IC50 (WT RT (HIV-1 RT)): < 0.1 µM
IC50 ([2]; IC50 V106A (nM)): > 1000 nM
IC50 ([3]; IC50 Y188L (nM)): > 1000 nM

CCN1c2ncc(CCOc3ccc(CCC(=O)O)c4ccccc34)cc2C(=O)Nc2c(C)cc(F)nc21 [Entry 1027]
IC50 [1]: 0.1 to 1 µM
IC50 (WT RT (HIV-1 RT)): < 0.1 µM
IC50 ([2]; IC50 V106A (nM)): 100 to 1000 nM
IC50 ([3]; IC50 Y188L (nM)): > 1000 nM

CCN1c2ncc(CCOc3ccc(CC(=O)O)c4ccccc34)cc2C(=O)Nc2c(C)cc(F)nc21 [Entry 1014]
IC50 [1]: 0.1 to 1 µM
IC50 (WT RT (HIV-1 RT)): < 0.1 µM
IC50 ([2]; IC50 V106A (nM)): 100 to 1000 nM
IC50 ([3]; IC50 Y188L (nM)): > 1000 nM

CCN1c2ncc(CCOc3ccc(C(=O)O)c4ccccc34)cc2C(=O)Nc2c(C)cc(F)nc21 [Entry 1004]
IC50 [1]: 0.1 to 1 µM
IC50 (WT RT (HIV-1 RT)): < 0.1 µM
IC50 ([2]; IC50 V106A (nM)): 100 to 1000 nM
IC50 ([3]; IC50 Y188L (nM)): > 1000 nM

CCN1c2ncc(CCOc3ccc4cc(CC(=O)O)ccc4c3)cc2C(=O)N(C)c2cccnc21 [Entry 3004]
IC50 [1]: > 1 µM
IC50 (WT RT (HIV-1 RT)): < 0.1 µM
IC50 ([2]; IC50 V106A (nM)): 100 to 1000 nM
IC50 ([3]; IC50 Y188L (nM)): > 1000 nM
